Measured values as given in patent publication US8901114B2, “Oxathiazine derivatives substituted with carbocycles or heterocycles, method for producing same, drugs containing said compounds, and use thereof” (Sanofi, priority 2011, dated 2014).

Molecular target: human 11β-HSD1 microsome fraction (Homo sapiens, UniProt P28845)
Assay: Enzymatic 11beta-HSD1 test (SPA-based detection)
Type: biochemical
Conditions: human 11β-HSD1 microsomes, [1,2-3H]-cortisone, NADPH, 37° C., 1 hour; read-out: IC50 (nM), Biological activity in nanomolar
Experimental: Enzymatic 11beta-HSD1 test:
First of all, 20 μl of the human 11β-HSD1 microsome fraction (0.2 μg of protein), prepared in 50 mM HEPES, 0.1% BSA (w/v), were applied to a plate with 384 wells. The test compounds (0.09 μl) were applied to the assay plate in 100% DMSO. The reaction was started by addition of 20 μl of [1,2-^3H]-cortisone (0.1 μCi/[…]) in assay buffer comprising 25 mM HEPES, 100 mM KCl, 5 mM NaCl, 2 mM MgCl2 and 0.25 mM NADPH. The plate was agitated at 37° C. for 1 hour. At the same time, a stop solution comprising 20 mg/ml SPA-PVT beads, 1.6 mg/ml monoclonal cortisol antibody and 0.01 mM SSR110887 (inhibitor from the Biovitrium patent) in 50 mM HEPES, 1 M NaCl and 1 M KCl was stirred at room temperature. To stop the reaction, 25 μl of the stop solution were added to each well. The plate was agitated gently at room temperature for 1 further hour and then centrifuged at 500 gav for […], in order that the SPA beads could settle out. […] The comparative compound was glycyrrhetinic acid.
Protein and radioactive substrate were dispensed with a Biomek FX unit (Beckman Coulter) for handling liquids. The test compounds were added with a Cybi-Well equipped with a 90 nl pin tool (CyBio).
Lit.: Solly S, Mundt S S, Zokian H J, Juy-Fang Ding G, Hermanowski-Vosatka A, Strulovici B and Zheng W. High-throughput screening of 11β-Hydroxysteroid dehydrogenase type 1 in scintillation proximity format.

human 11β-HSD1 microsome fraction, sequence (P28845 whole entry): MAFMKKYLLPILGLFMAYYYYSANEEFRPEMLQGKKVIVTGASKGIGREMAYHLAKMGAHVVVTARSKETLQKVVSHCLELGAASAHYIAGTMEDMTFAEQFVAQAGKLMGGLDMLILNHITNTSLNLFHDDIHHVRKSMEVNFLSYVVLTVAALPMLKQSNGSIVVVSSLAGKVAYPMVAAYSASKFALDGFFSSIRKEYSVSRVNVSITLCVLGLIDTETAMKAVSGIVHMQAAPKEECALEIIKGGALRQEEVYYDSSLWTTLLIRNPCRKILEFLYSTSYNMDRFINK

Compound	IC50 [nM]
O=S1(=O)N=C(NC2CC[C@H]3CC[C@@H]2C3)OC2CCCCC21 (stereo partly drawn) [Example 54, (1R,5R)-Bicyclo[3.2.1]oct-2-yl-(1,1-dioxo-4a,5,6,7,8,8a-hexahydro-1H-1lambda6-benzo[1,4,3]oxathiazin-3-yl)-amine]	29
CC1(C)[C@@H]2CC[C@@]1(C)[C@H](NC1=NS(=O)(=O)C3CCCCC3O1)C2 (single isomer, unassigned) [Example 14]	236
O=S1(=O)N=C(NC2CCSc3ccccc32)OC2CCCCC21 (stereo not shown) [Example 48, (1,1-Dioxo-4a,5,6,7,8,8a-hexahydro-1H-1lambda6-benzo[1,4,3]oxathiazin-3-yl)-thiochroman-4-yl-amine]	93
O=S1(=O)N=C(NN2CCCCCC2)OC2CCCCC21 (stereo not shown) [Example 66, Azepan-1-yl-(1,1-dioxo-4a,5,6,7,8,8a-hexahydro-1H-1lambda6-benzo[1,4,3]oxathiazin-3-yl)-amine]	148
O=S1(=O)N=C(N[C@@H]2CCCC[C@H]2CO)O[C@H]2CCCC[C@H]21 [Example 59, [(1R,2R)-2-((4aS,8aR)-1,1-Dioxo-4a,5,6,7,8,8a-hexahydro-1H-1lambda6-benzo[1,4,3]oxathiazin-3-ylamino)-cyclohexyl]-methanol]	658
CC(C)C(NC1=NS(=O)(=O)C2CCCCC2O1)c1cccs1 (stereo not shown) [Example 25, (1,1-Dioxo-4a,5,6,7,8,8a-hexahydro-1H-1lambda6-benzo[1,4,3]oxathiazin-3-yl)-(2-methyl-1-thiophen-2-yl-propyl)-amine]	121
O=S1(=O)N=C(NC23CCC(CC2)CC3)OC2CCCC21 (stereo not shown) [Example 72, Bicyclo[2.2.2]oct-1-yl-(1,1-dioxo-1,4a,5,6,7,7a-hexahydro-1lambda6-cyclopenta[1,4,3]oxathiazin-3-yl)-amine]	74
CC1CC(NC2=NS(=O)(=O)C3CCCCC3O2)CC(C)(C)C1 (stereo not shown) [Example 23, (1,1-Dioxo-4a,5,6,7,8,8a-hexahydro-1H-1lambda6-benzo[1,4,3]oxathiazin-3-yl)-(3,3,5-trimethyl-cyclohexyl)-amine]	20
C[C@@H](NC1=NS(=O)(=O)C2CCCCC2O1)C1CCCCC1 (stereo partly drawn) [Example 29, ((R)-1-Cyclohexyl-ethyl)-(1,1-dioxo-4a,5,6,7,8,8a-hexahydro-1H-1lambda6-benzo[1,4,3]oxathiazin-3-yl)-amine]	275
CC(C)CC(CC(C)C)NC1=NS(=O)(=O)C2CCCCC2O1 (stereo not shown) [Example 55, (1,1-Dioxo-4a,5,6,7,8,8a-hexahydro-1H-1lambda6-benzo[1,4,3]oxathiazin-3-yl)-(1-isobutyl-3-methyl-butyl)-amine]	670

Other lines, results leading:

IC50 [nM]	Compound
38	CC12CCC(NC3=NS(=O)(=O)C4CCCC4O3)(CC1)CC2 (stereo not shown) [Example 64, (1,1-Dioxo-1,4a,5,6,7,7a-hexahydro-1lambda6-cyclopenta[1,4,3]oxathiazin-3-yl)-(4-methyl-bicyclo[2.2.2]oct-1-yl)-amine]
5	CC12CCC(NC3=NS(=O)(=O)[C@@H]4CCCC[C@@H]4O3)(CC1)CC2 [Example 13, ((4aS,8aR)-1,1-Dioxo-4a,5,6,7,8,8a-hexahydro-1H-1lambda6-benzo[1,4,3]oxathiazin-3-yl)-(4-methyl-bicyclo[2.2.2]oct-1-yl)-amine]
5	CC1(C)[C@@H]2CC[C@@]1(C)[C@H](NC1=NS(=O)(=O)C3CCCCC3O1)C2 (single isomer, unassigned) [Example 9]
16	C[C@@H]1[C@@H](NC2=NS(=O)(=O)C3CCCCC3O2)C[C@H]2C[C@@H]1C2(C)C (stereo partly drawn) [Example 56, (1,1-Dioxo-4a,5,6,7,8,8a-hexahydro-1H-1lambda6-benzo[1,4,3]oxathiazin-3-yl)-((1S,2S,3S,5R)-2,6,6-trimethyl-bicyclo[3.1.1]hept-3-yl)-amine]
355	O=S1(=O)N=C(N[C@H]2CC[C@H](O)CC2)OC2CCCCC21 (stereo partly shown) [Example 81, 4-(1,1-Dioxo-4a,5,6,7,8,8a-hexahydro-1H-1lambda6-benzo[1,4,3]oxathiazin-3-ylamino)-cyclohexanol]
59	CC1(C)[C@@H]2CC[C@@]1(C)[C@@H](NC1=NS(=O)(=O)C3CCCCC3O1)C2 (stereo partly drawn) [Example 36, (1,1-Dioxo-4a,5,6,7,8,8a-hexahydro-1H-1lambda6-benzo[1,4,3]oxathiazin-3-yl)-((1R,2S,4R)-1,7,7-trimethyl-bicyclo[2.2.1]hept-2-yl)-amine]
308	O=S1(=O)N=C(NN2CC3CCCC3C2)OC2CCCCC21 (stereo not shown) [Example 65, (1,1-Dioxo-4a,5,6,7,8,8a-hexahydro-1H-1lambda6-benzo[1,4,3]oxathiazin-3-yl)-(hexahydro-cyclopenta[c]pyrrol-2-yl)-amine]
440	O=S1(=O)N=C(NC(C2CC2)C2CC2)OC2CCCCC21 (stereo not shown) [Example 39, Dicyclopropylmethyl-(1,1-dioxo-4a,5,6,7,8,8a-hexahydro-1H-1lambda6-benzo[1,4,3]oxathiazin-3-yl)-amine]
165	O=S1(=O)N=C(NCC2CCCCO2)OC2CCCCC21 (stereo not shown) [Example 47, (1,1-Dioxo-4a,5,6,7,8,8a-hexahydro-1H-1lambda6-benzo[1,4,3]oxathiazin-3-yl)-(tetrahydro-pyran-2-ylmethyl)-amine]
8	CC12CCC(NC3=NS(=O)(=O)[C@H]4CCCC[C@H]4O3)(CC1)CC2 [Example 5, ((4aR,8aS)-1,1-Dioxo-4a,5,6,7,8,8a-hexahydro-1H-1lambda6-benzo[1,4,3]oxathiazin-3-yl)-(4-methyl-bicyclo[2.2.2]oct-1-yl)-amine]
43	O=S1(=O)N=C(N[C@@H]2C[C@H]3CC[C@@H]2C3)OC2CCCCC21 (stereo partly drawn) [Example 62, (1R,2R,4S)-Bicyclo[2.2.1]hept-2-yl-((5S,6R)-1,1-dioxo-4a,5,6,7,8,8a-hexahydro-1H-1lambda6-benzo[1,4,3]oxathiazin-3-yl)-amine]
49	CC12CCCCC1S(=O)(=O)N=C(NC1CCCCC1)O2 (stereo not shown) [Example 89, Cyclohexyl-(4a-methyl-1,1-dioxo-4a,5,6,7,8,8a-hexahydro-1H-1lambda6-benzo[1,4,3]oxathiazin-3-yl)-amine]
570	CC1(C)[C@@H]2CC[C@@]1(C)[C@H](O)[C@H]2NC1=NS(=O)(=O)C2CCCCC2O1 (stereo partly drawn) [Example 38, (1R,2S,3S,4S)-3-(1,1-Dioxo-4a,5,6,7,8,8a-hexahydro-1H-1lambda6-benzo[1,4,3]oxathiazin-3-ylamino)-1,7,7-trimethyl-bicyclo[2.2.1]heptan-2-ol]
497	CC1(C)C2CCC1C(NC1=NS(=O)(=O)C3CCCCC3O1)C2O (stereo not shown) [Example 41, 3-(1,1-Dioxo-4a,5,6,7,8,8a-hexahydro-1H-1lambda6-benzo[1,4,3]oxathiazin-3-ylamino)-7,7-dimethyl-bicyclo[2.2.1]heptan-2-ol]
54	CC(C)[C@]12CC(NC3=NS(=O)(=O)C4CCCCC4O3)[C@H](C)[C@H]1C2 (stereo partly drawn) [Example 53, (1,1-Dioxo-4a,5,6,7,8,8a-hexahydro-1H-1lambda6-benzo[1,4,3]oxathiazin-3-yl)-((1S,4R,5R)-1-isopropyl-4-methyl-bicyclo[3.1.0]hex-3-yl)-amine]
